Test results reported in patent publication US11571460B2 (priority 2017, dated 2023).

Columns and labels:
splenocytes [1] = assay: Melittin binding study with rhodamine-bound melittin in splenocytes; format: cell-based, mice
Protocol: After 1 hour, cells were harvested and the non-binding peptides were washed twice.
Next, the cells were cultured with rhodamine-bound peptides and stained with CD11b-APC antibodies as described above.
Annexin-V was added to a sample before data collection to distinguish dead cells. […] tumor-associated macrophage was stained with CD86-PEcy7 (e-bioscience) or CD206-PercpCy5.5 (Biolegend). The cells were detected in FACS Calibur or FACS CantoII.

[2] = test system: bone marrow-derived macrophages; assay: Phagocytosis assay with latex bead-FITC; format: cell-based, mouse; conditions: vs control group
Protocol: Cells were smeared in a 96-assay well plate and treated as described above. The cells were pretreated for 30 minutes with or without cytochalasin D before treatment with latex bead-FITC (Sigma-Aldrich). After 2 hours of incubation, the cells were washed with PBS three times to remove foreign particles. Fluorescence of internalized beads was measured using emission of 527 nm after excitation of 485 nm in a fluorescent plate reader (Fluorskan Ascent FL) quenching with trypan blue.

[3] = test system: Lewis lung carcinoma cells; assay: Tumor growth and survival in mice injected subcutaneously with Lewis lung carcinoma cells; format: in vivo, C57BL/6 mice
Protocol: A cancer growth rate in the control group was fast, but the cancer growth in the melittin-treated group was late.
(§1) Lewis lung carcinoma cells were mixed with a Matrigel matrix (Coming, N.Y., USA) to generate a tumor model. Male C57BL/6 wild-type mice (6 to 8 weeks old) were inoculated subcutaneously in the right flank with 5×10^4 cells per mouse. […] Before 3 days of tumor injection, macrophage deficiency was performed by clodronate liposomes (first dose of 200 μl per mouse, maintenance dose of 100 μl intraperitoneally every 4 days). Clodronate liposome and control liposome were purchased from FormuMax (Sunnyvale, Calif., USA). A tumor size was monitored every 2 to 3 days by measuring two opposite diameters (volume=length×width×width/2). If the tumor size exceeded 5% of the body weight, the mice were sacrificed for a next experiment set. Thereafter, the tumor and the spleen were surgically removed.

[4] = Body weight of tumor-bearing mice; format: in vivo
Protocol: The weights of mice were measured every 2 to 3 days until 0 to 18 days.

[5] = Blood cell profile test (hematological profiling); format: in vivo, mice
Protocol: The blood was collected from the retro-orbital plexus of mice under anesthesia. The blood was immediately mixed with EDTA and analyzed by a Hemavet 950 auto-sampler (Drew scientific, Waterbury, Conn., USA) according to manufacturer's instructions. The parameters of leukocytes, erythrocytes, and platelets were measured and expressed as a percentage.
The blood was collected via the retro-orbital plexus during anesthesia.

lung cancer cells = assay: Cell cycle analysis by PI staining and flow cytometry; format: cell-based; conditions: 0.1 to 2 μg/mL melittin
Protocol: The cells were collected, washed twice with PBS, fixed with 70% pre-cooled ethanol and stored at −20° C. overnight. The cells were washed and resuspended in PBS 500 μl containing 0.1% Triton X-100 and RNase 20 μg/ml. Next, 50 μg/ml of propidium iodide (PI) was added. Stained cells were cultured at 37° C. for 20 minutes and then detected by a FACS Calibur flow cytometer (Becton Dickinson, San Jose, Calif., USA). Data were analyzed by Flow Jo software (Treestar, Inc., San Carlos, Calif., USA).

splenocytes [6] = assay: Flow cytometry of immune cells in splenocytes of tumor-bearing mice; format: in vivo
Protocol: (§2) A tissue was dissociated by cutting the tumor into thin pieces and gently stirring in DNase I (1 U/ml; Roche, Indianapolis, trypsin-EDTA (Gibco)) under DMEM (Welgene) preheated at 37° C. for 1 hour. The tissue was mechanically dissociated in a 100 μm nylon mesh strainer, then single cells passed through a 40 μm nylon mesh strainer, and the spleen was mechanically dissociated with a 40 μm nylon mesh strainer. RBC was dissolved for 5 minutes in a 1× pharmlyse buffer.
(§3) The cells were stained with fluorescent tag antibodies. All data were detected by a FACS Calibur flow cytometer and analyzed with FlowJo software. CD45-FITC, CD3-FITC, CD4-PE, CD4-FITC, CD8-APC, CD11b-APC, CD11 c-PE, CD25 (CD12-FITC)-PE, CD25-APC, B220-FITC, CD19-PE, CD86-APC, and Foxp3-Alexa Fluor647 were purchased from BD bioscience and F4/80-PE and CD206-APC were purchased from Biolegend (San Diego, Calif., USA).
as §1
Screening of the immune cells was performed by flow cytometry on CD4^+ T cells, CD8^+ T cells, B cells, dendritic cells, and macrophages from splenocytes of mice with cancer. The flow cytometry was performed in the same manner as Example 3-2.

[7] = test system: tumor-associated macrophages (TAM); assay: Flow cytometry of tumor-associated macrophages in tumor tissue; format: in vivo, mice
Protocol: as §2, §3, §1

[8] = test system: bone marrow-derived macrophages (BMDM); assay: Quantitative real-time PCR in bone marrow-derived macrophages; format: cell-based, mouse
Protocol: (§4) Cells were harvested as previously described to generate mouse bone marrow-derived macrophages. The cells were cultured for 7 days in an RPMI-1640 complete culture medium containing 10 ng/ml of mouse recombinant M-CSF (R & D systems, Minneapolis, Minn., USA). After the cells were differentiated into M0 macrophages, the cells were smeared in a 6-well plate (1×10^6 cells/well) and cultured overnight under 100 ng/ml LPS or 20 ng/ml mouse recombinant IL-4 (R & D system) to induce differentiation of M1 or M2 phenotype macrophages.
(§5) Quantitative real time PCR was performed according to previous reports. Data were expressed as […] for experimental genes, normalized to GAPDH, and expressed as a fold change compared to an LPS or IL-4 untreated control group. The following primers were used: Gapdh(for: […] (SEC) ID NO: 1); rev: […] (SEQ ID NO: 2)), Tnf-α(for: TTCTG […] (SEQ ID NO: 3); rev: GTAT […] (SEQ ID NO: 4), Mrc1/CD206(for: […] (SEQ ID NO: 5); rev: GGTT […] (SEQ ID NO: 6)), I1-10(for: […] (SEQ ID NO: 7); rev: […] (SEQ ID NO: 8)), Tgf-β(for: […] (SEQ ID NO: 9); rev: […] (SEQ ID NO: 10)), Vegf(for: GGAGA […] (SEQ ID NO: 11); rev: […](SEQ ID NO: 12)), F1t1/VEGFR1(for: […] (SEQ. ID NO: 13); rev: […] (SEQ ID NO: 14)).

[9] = test system: Lewis lung carcinoma cells; assay: Quantitative real-time PCR in Lewis lung carcinoma cells; format: cell-based; conditions: control vs melittin-treated
Protocol: as §5

[10] = test system: bone marrow-derived macrophages (BMDM); assay: ELISA of cytokines in BMDM culture supernatant; format: cell-based, mouse
Protocol: as §4
The secretion of cytokine from the culture medium was analyzed using an ELISA kit according to a procedure recommended by a provider. Mouse IL-10 and
TNF-α were purchased from BD Biosciences, and TGF-β was purchased from R & D systems. Results were expressed as pg of normalized cytokine per mg of total protein.

[11] = test system: bone marrow-derived macrophages (BMDM); assay: Western blot analysis of BMDM; format: cell-based, mouse
Protocol: as §4
Total proteins were extracted using a RIPA buffer from melittin or PBS treated-bone marrow-derived macrophages and quantified by Bio-Rad analysis. 20 μg of protein was isolated on an 8% SDS Tris-glycine gel and transferred to a nitro cellulose cell membrane (Invitrogen). The following antibodies and dilution factors were used: VEGF goat polyclonal antibody (sc-1836, 1:1000, Santa Cruz), actin goat polyclonal antibody (sc-1616, 1:1000, Santa Cruz), […] CD206 (MCA2235GA 1:200, AbD serotec), anti-goat IgG conjugated to HRP (SA007, 1:1000, GenDEPOT), and anti-rat IgG bound to HRP (405405, 1:1000, Biolegend). Protein bands were visualized using an ECL solution (GE healthcare) and measured with Image J software. The strength of the protein has been normalized above that of actin.

[12] = test system: M1-type bone marrow-derived macrophages; assay: Intracellular ROS production by H2DCFDA staining; format: cell-based, mouse; conditions: melittin-treated vs control, 24 hours
Protocol: The cells were added with 5 μM C2′,7′-dichlorodihydrofluorescein diacetate (H2DCFDA; molecular probe) and cultured at 37° C. for 30 minutes. The H2DCFDA-containing medium was removed and the cells were washed twice with preheated PBS. After the cells were collected, ROS production levels were immediately analyzed using flow cytometry.

tumor tissue = assay: Immunofluorescence confocal microscopy of VEGF and CD31 in tumor tissue; format: in vivo, mice
Protocol: The tumor of inoculated mice was fixed overnight with paraformaldehyde, dehydrated, and then placed in paraffin. Slices (5 μm thick) of the inserted tissue were cut in a rotary microtome and deparaffinized. The antigens of the slides were recovered by an autoclave in a trisodium citrate buffer (pH 6) for 1 minute, washed with PBS and then blocked for 1 hour with 1.5% BSA containing 0.2% Triton X-100. The slides were cultured overnight at 4° C. with anti-VEGF and anti-CD31 primary antibodies (1:200, Santa Cruz Biotechnology, Santa Cruz, Calif., USA).
All tissue slices were cultured at room temperature for 1 hour and then visualized with an alexa-488 or alexa-594 conjugated secondary antibody (1:500, Invitrogen). All the antibodies were diluted with a 0.5% BSA solution and cultured in a wet chamber. The slides were fixed with a DAPI solution and analyzed by laser scanning confocal microscopy (Bio-Rad, Richmond, Calif., USA). All images were captured with LSM and total integration density was measured with image J software.

[13] = melittin-treated tumor-bearing mice

C=C1[C@@H](C)[C@H]2[C@H](Cc3ccccc3)NC(=O)[C@]23[C@H](OC(C)=O)/C=C/[C@@](C)(O)C(=O)[C@@H](C)C/C=C/[C@H]3[C@@H]1O [cytochalasin D, reference compound]
melittin+CD11b+ double positive cells in total CD11b+ cell population (splenocytes [1]; 10 nM cytochalasin D pretreatment vs DMSO control): no difference | phagocytic capacity / phagocytosis index [2]: significantly lowered

CC[C@H](C)[C@H](NC(=O)CN)C(=O)NCC(=O)N[C@@H](C)C(=O)N[C@H](C(=O)N[C@@H](CC(C)C)C(=O)N[C@@H](CCCCN)C(=O)N[C@H](C(=O)N[C@@H](CC(C)C)C(=O)N[C@H](C(=O)N[C@H](C(=O)NCC(=O)N[C@@H](CC(C)C)C(=O)N1CCC[C@H]1C(=O)N[C@@H](C)C(=O)N[C@@H](CC(C)C)C(=O)N[C@H](C(=O)N[C@@H](CO)C(=O)N[C@@H](Cc1c[nH]c2ccccc12)C(=O)N[C@H](C(=O)N[C@@H](CCCCN)C(=O)N[C@@H](CCCNC(=N)N)C(=O)N[C@@H](CCCCN)C(=O)N[C@@H](CCCNC(=N)N)C(=O)N[C@@H](CCC(N)=O)C(=O)N[C@@H](CCC(N)=O)C(N)=O)[C@@H](C)CC)[C@@H](C)CC)[C@@H](C)O)[C@@H](C)O)C(C)C)C(C)C [melittin]
cancer growth reduced compared to the control group ([3]; 0.5 mg/kg melittin peptide intraperitoneal, after 13 days of administration): 40% | cancer growth suppressed compared to the control group ([3]; 0.5 mg/kg melittin peptide intraperitoneal, day 15): about 45% | survival period vs control group (PBS-treated), Mantel-Cox analysis ([3]; tumor-bearing mice): significantly longer | weight of mice ([4]; day 0): 22.84±0.36 | weight of mice ([4]; day 18): 24.72±0.45 | weight loss ([4]; measured every 2 to 3 days, 0 to 18 days): no weight loss | hematological factors (WBC, RBC, Hgb, HCT, MCV and MCH) ([5]; 0.5 mg/kg or 1 mg/kg melittin): did not result in significant changes | acute cytotoxic damage ([5]; judged from N/L ratio): does not cause acute cytotoxic damage | direct killing effect on cancer cells (lung cancer cells): no direct killing effect | percentage of cells at each cell cycle stage (lung cancer cells; 24 hours): no percentage change | other immune cells from total splenocytes (splenocytes [6]; control vs melittin-treated groups): no percentage change | CD45+F480+ macrophages in splenocytes (splenocytes [6]; [13]): 5.10±0.42 | number of regulatory T cells in splenocytes (splenocytes [6]; [13]): decreased slightly | level of M1 or M2 type macrophages in splenocytes (splenocytes [6]; spleen): not changed | percentage of CD11b+F4/80+ macrophages in CD45+ tumor-infiltrating leukocytes [7, 13]: 38.70±0.79% | number of F4/80+CD86+ in CD45+ cells ([7]; tumor, M1-type): not increased | percentage of F4/80+CD206+ in CD45+ cells ([7]; tumor, M2-type): 9.53±0.63% | melittin binding in CD11b+ cells (splenocytes [1]; 0.5 μg/ml rhodamine-bound melittin, 1 hour): approximately 16% | percentage of melittin+CD86+ population in F4/80+ cells (splenocytes [1]; M1 type): 3.27±0.39% | percentage of melittin and CD206 double positive population in F4/80+ cells (splenocytes [1]; M2 type): 9.15±1.05% | melittin binding to DC (CD11c) (splenocytes [1]; rhodamine-bound melittin): 24.44±0.56 | melittin binding to macrophages (F4/80) in annexinli-CD11b+ melittin+ cells (splenocytes [1]; rhodamine-bound melittin): 67.70±2.96 | melittin binding to neutrophils (Gr-1) (splenocytes [1]; rhodamine-bound melittin): 36.36±0.95 | gene level of TNF-α ([8]; LPS stimulation): did not affect | gene expression level of IL-10 ([8]; M2-type BMDM (IL-4)): not changed | gene expression level of TGF-β ([8]; M2-type BMDM (IL-4)): not changed | mRNA level for Mrc1/Cd206 compared to the control group ([8]; M2-type BMDM (IL-4)): significantly reduced | mRNA level for Vegf compared to the control group ([8]; M2-type BMDM (IL-4)): significantly reduced | mRNA level of Vegf [9]: no large difference | mRNA level of flt1/VFGFR [9]: no large difference | protein level of TNF-α ([10]; LPS stimulation): did not affect | protein expression level of IL-10 ([10]; M2-type BMDM (IL-4)): not changed | protein expression level of TGF-β ([10]; M2-type BMDM (IL-4)): not changed | expression level of CD206 protein [11]: reduced | expression level of VEGF protein [11]: reduced | intracellular ROS levels [12]: no difference | integrated density of VEGF (image J) (tumor tissue; 0.5 mg/kg and 1 mg/kg vs PBS control group): significant difference | level of CD31 by immunofluorescence staining (tumor tissue; compared to a PBS group): decrease | level of VEGF by immunofluorescence staining (tumor tissue; compared to a PBS group): decrease
